Common to all, as to type: in vivo
In one data set the test system is Chenopodium album. The data set is described as follows: Test Example 5: herbicidal effect by foliage application, plastic box (symbol O). The conditions noted are these: 320 g/ha, 3 weeks after application. The procedure, abridged:
(§1)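 Greenhouse foliar test: seedlings at 14 days, grown 25° C. to 30° C. in sterilized diluvial soil; compound applied as an aqueous dilution of an emulsion; response read 3 weeks after spraying.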

The test system of another data set is Leptochloa chinensis. Kind of data set: Test Example 3: herbicidal effect by foliage application, Wagner pot (symbol D). The conditions noted are these: application herbicide amount 320 g/ha, Table 24. Summed up: (§2)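 Foliar spray of a water-diluted emulsion at a predetermined herbicide amount, applied to 14-day-old plants. Seedlings were raised in flooded alluvial soil (0.1–0.5 cm water) at 25–30 °C in a greenhouse. Injury was rated after 3 weeks against fixed criteria.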

Another data set has as its system rice. The data set is described as follows: Test Example 4: effect on crop by soil treatment (symbol b). The conditions noted are these: application herbicide amount 320 g/ha. Summed up: (§3)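 Sterilized diluvial soil, spot sowing, ~1.5 cm soil cover; greenhouse 25–30° C.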
The next data set relates to Digitaria ciliaris. The data set is described as follows: Test Example 4: herbicidal effect by soil treatment (symbol F). The conditions noted are these: application herbicide amount 320 g/ha. The procedure, abridged: (§4)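 Seeds were sown in sterilized diluvial soil, covered with about 1.5 cm of soil, and the soil surface was sprayed with a water-diluted emulsion of the compound at a predetermined rate. Plants grew in a greenhouse at 25° C. to 30° C.; effects were scored visually 3 weeks after application.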

Another data set deals with Lolium multiflorum Lam. Kind of data set: Test Example 4: herbicidal effect by soil treatment (symbol K). The conditions noted are these: application herbicide amount 320 g/ha. Summed up: as §4
The subject of the next data set is Scirpus juncoides. The data set is described as follows: Test Example 2: herbicidal activity, application during weed generation in submerged conditions (symbol B). The conditions noted are these: Table 23; application herbicide amount 320 g/ha; grade 0-5 by criteria of Test Example 1. Summed up: (§5)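 Scoring of herbicidal effect took place 3 weeks after treatment, using the criteria of the earlier test. Treatment was water-surface application of diluted emulsifiable compound at a set dose. Plants were at one- to two-leaf stage in submerged alluvial soil (4 cm depth), greenhouse 25-30° C.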

Data set [1] relates to Stellaria media. Kind of data set: Test Example 5: herbicidal effect by foliage application, plastic box (symbol P). The conditions noted are these: 320 g/ha, 3 weeks after application. The procedure, abridged: as §1
The test system of another data set is rice plant. The data set is described as follows: Test Example 5: effect on crop by foliage application, plastic box (symbol b). The conditions noted are these: 320 g/ha, 3 weeks after application. The procedure, abridged:
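Greenhouse test at 25° C. to 30° C. Seeds of crops and weeds were spot-sown in boxes of sterilized diluvial soil under roughly 1.5 cm soil cover, then grown for foliage treatment.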

Data set [2] deals with Echinochloa crus-galli var. crus-galli. Kind of data set: Test Example 3: herbicidal effect by foliage application, Wagner pot (symbol H). The conditions noted are these: application herbicide amount 320 g/ha, Table 24. Summed up:
as §2

The next data set concerns Setaria viridis. The data set is described as follows: Test Example 4: herbicidal effect by soil treatment (symbol G). The conditions noted are these: application herbicide amount 320 g/ha. Summed up:
as §4

The subject of data set [3] is Echinochloa crus-galli var. crus-galli. The data set is described as follows: Test Example 5: herbicidal effect by foliage application, plastic box (symbol H). The conditions noted are these: 320 g/ha, 3 weeks after application. Summed up:
as §1

In another data set the test system is Monochoria vaginalis. The data set is described as follows: Test Example 2: herbicidal activity, application during weed generation in submerged conditions (symbol C). The conditions noted are these: Table 23; application herbicide amount 320 g/ha; grade 0-5 by criteria of Test Example 1. Summed up:
as §5

Data set [4] deals with Alopecurus myosuroides. Kind of data set: Test Example 5: herbicidal effect by foliage application, plastic box (symbol J). The conditions noted are these: 320 g/ha, 3 weeks after application. Summed up: as §1
Data set [5] has as its system Stellaria media. The data set is described as follows: Test Example 4: herbicidal effect by soil treatment (symbol P). The conditions noted are these: application herbicide amount 320 g/ha. Summed up:
as §4

Another data set deals with wheat. The data set is described as follows: Test Example 4: effect on crop by soil treatment (symbol e). The conditions noted are these: application herbicide amount 320 g/ha. The procedure, abridged:
as §3

The test system of a further data set is Avena fatua. The data set is described as follows: Test Example 4: herbicidal effect by soil treatment (symbol I). The conditions noted are these: application herbicide amount 320 g/ha. The procedure, abridged:
as §4

The test system of data set [6] is Alopecurus myosuroides. Kind of data set: Test Example 4: herbicidal effect by soil treatment (symbol J). The conditions noted are these: application herbicide amount 320 g/ha. The procedure, abridged:
as §4

The test system of a further data set is Veronica persica. Kind of data set: Test Example 4: herbicidal effect by soil treatment (symbol R). The conditions noted are these: application herbicide amount 320 g/ha. The procedure, abridged:
as §4

The next data set has as its system Amaranthus retroflexus. The data set is described as follows: Test Example 5: herbicidal effect by foliage application, plastic box (symbol N). The conditions noted are these: 320 g/ha, 3 weeks after application. The procedure, abridged: as §1
Data set [7] has as its system Echinochloa oryzacola Vasing. Kind of data set: Test Example 2: herbicidal activity, application during weed generation in submerged conditions (symbol A). The conditions noted are these: Table 23; application herbicide amount 320 g/ha; grade 0-5 by criteria of Test Example 1. Summed up: as §5

Experimental findings from patent US11000033B2, “Ketone or oxime compound, and herbicide” (NISSAN CHEMICAL CORPORATION, priority 2014, dated 2021) are described below.

With `CON=C(C)CC1C(O)=C(c2c(C)cc(C)cc2C)C(=O)C1C` (mixture of isomers) [12-002], the “O: Chenopodium album, herbicidal effect grade” value with Chenopodium album was 2 (Herbicidal ratio of 20% or higher and lower than 40%). For the same compound, the “D (Leptochloa chinensis) herbicidal effect grade” value with Leptochloa chinensis is listed as 5 (Herbicidal ratio of 90% or more (almost completely withered)). For the same compound, in the data set on rice, the “Effect on crop grade, b: directly sowed rice plant” value is 4 (Herbicidal ratio of 70% or higher and lower than 90%). The “Herbicidal effect grade, F: Digitaria ciliaris” value in the data set on Digitaria ciliaris was 4 (Herbicidal ratio of 70% or higher and lower than 90%). For the same compound, the “Herbicidal effect grade, K: Lolium multiflorum Lam.” value in the data set on Lolium multiflorum Lam. was 5 (Herbicidal ratio of 90% or more (almost completely withered)). The “Herbicidal effect grade, B: Scirpus juncoides” value in the data set on Scirpus juncoides was 3 (Herbicidal ratio of 40% or higher and lower than 70%). For the same compound, the “P: Stellaria media, herbicidal effect grade” value in the data set on Stellaria media [1] is 4 (Herbicidal ratio of 70% or higher and lower than 90%). In addition, in the data set with rice plant, the “b: directly sowed rice plant, effect on crop grade” value was 5 (Herbicidal ratio of 90% or more (almost completely withered)). In data set [2], the “H (Echinochloa crus-galli var. crus-galli) herbicidal effect grade” value is 5 (Herbicidal ratio of 90% or more (almost completely withered)). The “Herbicidal effect grade, G: Setaria viridis” value with Setaria viridis was 5 (Herbicidal ratio of 90% or more (almost completely withered)). For the same compound, the “H: Echinochloa crus-galli var. crus-galli, herbicidal effect grade” value in [3] is 5 (Herbicidal ratio of 90% or more (almost completely withered)). The “Herbicidal effect grade, C: Monochoria vaginalis” value in the data set with Monochoria vaginalis is 1 (Herbicidal ratio of 5% or higher and lower than 20%). The “J: Alopecurus myosuroides, herbicidal effect grade” value with Alopecurus myosuroides [4] is 5 (Herbicidal ratio of 90% or more (almost completely withered)). In the data set with Stellaria media [5], the “Herbicidal effect grade, P: Stellaria media” value is reported as 0 (Herbicidal ratio of 5% or lower (almost no effect)). Moreover, the “Effect on crop grade, e: wheat” value with wheat is 0 (Herbicidal ratio of 5% or lower (almost no effect)). The “Herbicidal effect grade, I: Avena fatua” value in the data set with Avena fatua was 4 (Herbicidal ratio of 70% or higher and lower than 90%). The “Herbicidal effect grade, J: Alopecurus myosuroides” value in the data set on Alopecurus myosuroides [6] was 4 (Herbicidal ratio of 70% or higher and lower than 90%). Also, in the data set on Veronica persica, the “Herbicidal effect grade, R: Veronica persica” value is given as 0 (Herbicidal ratio of 5% or lower (almost no effect)). Moreover, the “N: Amaranthus retroflexus, herbicidal effect grade” value in the data set on Amaranthus retroflexus is listed as 0 (Herbicidal ratio of 5% or lower (almost no effect)). Further, the “Herbicidal effect grade, A: Echinochloa oryzacola Vasing.” value in data set [7] is listed as 5 (Herbicidal ratio of 90% or more (almost completely withered)).
